Among the data in BindingDB's records for doi:10.7270/Q2CV4GM1 (D3R/Abbott, 2015) are IC50 values, retold here.

Values joined by “and” are separate entries in the source; they are usually repeats but may differ in a detail not shown here. Equal entries are not always repeated.

The target in the experiment is T1, Tyrosine-protein kinase SYK [355-635] (Homo sapiens, UniProt P43405).
T1 construct: 355-635
Kind of experiment: SYK assay_HTRF.
With `CC(C)ONS(=O)(=O)c1cccc(Nc2nccc(Nc3cccc4[nH]ncc34)n2)c1` [GTC000178A], the IC50 is 685 nM. To `CCN(c1nc(Nc2ccc3c(c2)C(=O)NC3)ncc1F)c1cccc2[nH]ncc12` [GTC000326A] belongs 13.5 nM and 17.3 nM and 66.7 nM; to `O=c1[nH]c2ccc(Nc3nccc(Nc4cccc5[nH]ncc45)n3)cc2[nH]1` [GTC000115A], 78.3 nM. To `CCN(c1nc(Nc2ccc3cnn(C)c3c2)ncc1Cl)c1cccc2[nH]ncc12` [GTC000334A] belongs 24 nM. The same measure for `CCN(c1nc(Nc2ccc3cnn(C)c3c2)ncc1F)c1cccc2[nH]ncc12` [GTC000255A]: 4.63 nM. As for `c1cc(Nc2ccnc(Nc3ccc4nn[nH]c4c3)n2)c2cn[nH]c2c1` [GTC000112A], the IC50 was 52.8 nM and 79.8 nM. For the compound `Cc1nn(CCCO)c2cc(Nc3ncc(F)c(N(CCCO)c4cccc5[nH]ncc45)n3)ccc12` [GTC000234A], the IC50 is 4.79 nM and 2.46 nM and 1.87 nM. Take `CCN(c1nc(Nc2ccc3c(c2)S(=O)(=O)CC3)ncc1F)c1cccc2[nH]ncc12` [GTC000277A]: the IC50 is 7.19 nM and 7.62 nM. To `COCCCN(c1ccnc(Nc2ccc3c(c2)S(=O)(=O)NC3)n1)c1cccc2[nH]ncc12` [GTC000236A] belongs 2.69 nM and 1.48 nM and 4.88 nM and 4.34 nM; to `O=c1[nH]c2ccc(Nc3ncc(F)c(N(CCCO)c4cccc5[nH]ncc45)n3)cc2[nH]1` [GTC000262A], 5.09 nM; to `O=S1(=O)NCc2cc(Nc3nccc(Nc4cccc5[nH]ncc45)n3)ccc21` [GTC000153A], 42.2 nM and 85.9 nM and 54.1 nM. To `OCCCN(c1nc(Nc2ccc3nn[nH]c3c2)ncc1F)c1cccc2[nH]ncc12` [GTC000295A] belongs 9.53 nM; to `CCN(c1nc(Nc2ccc3c(c2)CCN3C(C)=O)ncc1F)c1cccc2[nH]ncc12` [GTC000319A], 18.2 nM. On to `Cc1cc(NS(=O)(=O)c2ccc(Nc3nccc(Nc4cccc5[nH]ncc45)n3)cc2)no1` [GTC000189A], for which the IC50 is 741 nM and 942 nM and 582 nM. `COCCCN(c1nc(Nc2ccc3c(C)nn(CCCO)c3c2)ncc1F)c1cccc2[nH]ncc12` [GTC000279A] returned an IC50 of 7.52 nM. The same measure for `CCN(c1nc(Nc2ccc(-c3cnco3)c(OC)c2)ncc1F)c1cccc2[nH]ncc12` [GTC000362A]: 87.3 nM; for `OCCCCN(c1ccnc(Nc2ccc3nn[nH]c3c2)n1)c1cccc2[nH]ncc12` [GTC000275A]: 6.08 nM.

For `Cn1cnc2cc(Nc3nccc(Nc4cccc5[nH]ncc45)n3)ccc21` [GTC000162A], the IC50 is 110 nM and 94 nM and 245 nM. To `O=C1CCCc2cc(Nc3nccc(Nc4cccc5[nH]ncc45)n3)ccc21` [GTC000117A] belongs 91.2 nM. For the compound `O=S1(=O)CCc2ccc(Nc3ncc(F)c(N(CCCO)c4cccc5[nH]ncc45)n3)cc21` [GTC000251A], the IC50 is 6.11 nM and 4.06 nM and 3.67 nM. As to `COC(=O)COc1ccc(Nc2nccc(Nc3cccc4[nH]ncc34)n2)cc1` [GTC000199A], half-maximal inhibition (IC50) was put at 490 nM. As to `CCN(c1nc(Nc2ccc3[nH]c(=O)[nH]c3c2)ncc1Cl)c1cccc2[nH]ncc12` [GTC000290A], the IC50 was 6.7 nM and 12.6 nM.

As to `c1cc(Nc2ccnc(Nc3ccc4oncc4c3)n2)c2cn[nH]c2c1` [GTC000160A], the IC50 is 48.4 nM and 76 nM. For the compound `O=S1(=O)NCc2ccc(Nc3ncc(F)c(N(CC4CCOC4)c4cccc5[nH]ncc45)n3)cc21` (configuration not stated) [GTC000253A], the IC50 was 5.19 nM.

Turning to `CCN(c1nc(Nc2ccc3c(c2)S(=O)(=O)N(CC2CC2)C3)ncc1F)c1cccc2[nH]ncc12` [GTC000330A], the IC50 is 36.2 nM and 19.4 nM. The same measure for `O=S1(=O)NCc2ccc(Nc3nccc(N(C[C@@H](O)CO)c4cccc5[nH]ncc45)n3)cc21` [GTC000304A]: 13.6 nM; for `NS(=O)(=O)c1cccc(Nc2nccc(N(CCCCO)c3cccc4[nH]ncc34)n2)c1` [GTC000356A]: 59.3 nM; for `O=S(=O)(c1ccc(Nc2nccc(Nc3cccc4[nH]ncc34)n2)cc1)N1CCCC1` [GTC000188A]: 1800 nM and 1340 nM. The compound `CN(c1nc(Nc2ccc3c(cnn3C)c2)ncc1F)c1cccc2[nH]ncc12` [GTC000303A] displayed an IC50 of 11.5 nM. Consider `Cc1ncoc1-c1cccc(Nc2nccc(N(CCCCO)c3cccc4[nH]ncc34)n2)c1` [GTC000286A], for which the IC50 was 7.64 nM. To `CCN(c1nc(Nc2ccc3cnn(CCCCO)c3c2)ncc1F)c1cccc2[nH]ncc12` [GTC000299A] belongs 13.9 nM; to `COCCCN(c1nc(Nc2ccc3c(cnn3C)c2)ncc1F)c1cccc2[nH]ncc12` [GTC000294A], 10.2 nM; to `CNC(=O)c1ccc(Nc2nccc(Nc3cccc4[nH]ncc34)n2)cc1` [GTC000146A], 65.3 nM and 114 nM. To `CCN(C(C)=O)c1ccc(Nc2nccc(Nc3cccc4[nH]ncc34)n2)cc1` [GTC000172A] belongs 589 nM; to `CCN(c1nc(Nc2ccc3c(c2)C(=O)N(C)C3)ncc1F)c1cccc2[nH]ncc12` [GTC000353A], 32.5 nM and 109 nM. The same measure for `Oc1ccc(Nc2nccc(Nc3cccc4[nH]ncc34)n2)cc1` [GTC000138A]: 195 nM and 50.5 nM. `O=C(O)c1cccc(Nc2nccc(Nc3cccc4[nH]ncc34)n2)c1` [GTC000119A] yielded an IC50 of 207 nM.
